Data as given in patent US10947242B2, “[1,2,4]triazolo[1,5and#8208;A]pyrimidine compounds as PDE2 inhibitors” (Janssen Pharmaceutica NV, priority 2016, dated 2021).
Read-outs that look alike come from different tables or passages of the source.

Tests used:
[1] = target: T1, Human recombinant PDE2A (hPDE2A) (Homo sapiens, UniProt O00408); experiment: In vitro assay PDE2A (SPA, 3H-cGMP hydrolysis); type: biochemical; conditions: for Emax: read-out: hPDE2A Emax
T1 construct: His tag (inferred from metal chelate purification); made in house; host or cells: Sf9 insect cells (baculovirus)

[2] = target: T2, Human recombinant PDE3A (hPDE3A) (Homo sapiens, UniProt Q14432); experiment: In vitro assay PDE3A (SPA, 3H-cAMP hydrolysis); type: biochemical; conditions: for IC50: hPDE3B pIC50, read-out: pIC50 (converted); for Emax: read-out: hPDE3B Emax, read-out: Emax;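 on all read-outs here: the method names PDE3A and the table heading PDE3B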
T2 construct: purchased Scottish Biomedical; host or cells: Sf9 insect cells
Method in brief: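 Radiometric SPA measuring [3H]-cAMP hydrolysis (0.4 μM cAMP, 2.4 μCi/ml) over 60 min at room temperature, in Tris pH 7.8 buffer with MgCl2 and EGTA, 1% DMSO. Enzyme: recombinant human brain PDE3A expressed in Sf9 cells, used as partially purified lysate. Counts compared with enzyme-free blanks and vehicle controls.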

[3] = target: T3, Human recombinant PDE10A (hPDE10A) (Homo sapiens, UniProt Q9Y233); experiment: In vitro assay PDE10A, human clone (SPA, 3H-cAMP hydrolysis); type: biochemical
T3 construct: His tag (inferred from metal chelate purification); made in house; host or cells: Sf9 insect cells (baculovirus)
Method in brief: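 Hydrolysis of 3H-cAMP (60 nM cAMP, 0.008 μCi tracer) proceeded for 60 min at room temperature, with the product detected by SPA bead scintillation counting. The enzyme was hPDE10A from baculovirus-infected Sf9 cells in Tris pH 7.8 buffer with MgCl2 and EGTA, and compounds were at 1% DMSO final. Blanks lacked enzyme.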

PDE2A = target: T4, PDE2A (Rattus norvegicus, UniProt Q01062); experiment: PDE2 occupancy by test compounds, ex-vivo autoradiography with [3H]B-17a; type: in vivo, Male Wistar rats; conditions: 10 mg/kg, route PO (oral), percentage receptor occupancy, ex-vivo autoradiography, striatum
T4 construct: Twenty μm-thick striatal sections were cut; from tissue; host or cells: rat brain, striatal sections
T4 sequence (Q01062 1-928): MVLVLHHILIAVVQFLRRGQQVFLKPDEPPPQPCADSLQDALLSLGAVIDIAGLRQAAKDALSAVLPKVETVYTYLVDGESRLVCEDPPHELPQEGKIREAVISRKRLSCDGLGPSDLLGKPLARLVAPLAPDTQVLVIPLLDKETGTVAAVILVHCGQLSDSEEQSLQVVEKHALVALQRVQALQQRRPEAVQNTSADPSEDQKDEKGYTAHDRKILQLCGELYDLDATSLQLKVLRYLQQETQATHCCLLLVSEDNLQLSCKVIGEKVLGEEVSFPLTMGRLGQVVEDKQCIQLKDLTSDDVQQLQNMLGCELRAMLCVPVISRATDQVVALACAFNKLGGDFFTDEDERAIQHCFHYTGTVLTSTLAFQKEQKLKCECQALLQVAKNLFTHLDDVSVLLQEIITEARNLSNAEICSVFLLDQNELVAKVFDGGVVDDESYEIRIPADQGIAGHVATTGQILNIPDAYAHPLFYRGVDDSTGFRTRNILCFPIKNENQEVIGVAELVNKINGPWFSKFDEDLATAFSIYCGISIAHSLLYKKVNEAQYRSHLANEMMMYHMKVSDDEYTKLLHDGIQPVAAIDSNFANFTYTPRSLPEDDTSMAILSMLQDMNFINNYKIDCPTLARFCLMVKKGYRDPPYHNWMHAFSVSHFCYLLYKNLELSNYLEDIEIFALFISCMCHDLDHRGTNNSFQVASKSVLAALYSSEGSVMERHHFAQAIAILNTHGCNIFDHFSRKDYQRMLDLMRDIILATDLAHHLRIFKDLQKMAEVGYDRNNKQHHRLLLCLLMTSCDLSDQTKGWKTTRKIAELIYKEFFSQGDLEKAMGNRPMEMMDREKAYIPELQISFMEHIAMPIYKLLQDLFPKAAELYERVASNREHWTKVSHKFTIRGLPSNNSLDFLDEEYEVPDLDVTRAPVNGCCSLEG

[4] = hPDE2A pIC50, human recombinant PDE2A, 10 μM cGMP substrate
[5] = human clone (h), default, read-out: hPDE10A2 Emax
[6] = human clone (h), default, read-out: hPDE10A2 pIC50 (converted)
[7] = human recombinant PDE2A, 10 μM cGMP substrate, read-out: hPDE2A pIC50 (converted)
[8] = read-out: hPDE2A pIC50 (converted)
[9] = human clone by default (no (r) mark), read-out: hPDE10A2 or rPDE10A2 Emax
[10] = human clone by default (no (r) mark), read-out: hPDE10A2 or rPDE10A2 pIC50 (converted)

T1 sequence (O00408 whole entry): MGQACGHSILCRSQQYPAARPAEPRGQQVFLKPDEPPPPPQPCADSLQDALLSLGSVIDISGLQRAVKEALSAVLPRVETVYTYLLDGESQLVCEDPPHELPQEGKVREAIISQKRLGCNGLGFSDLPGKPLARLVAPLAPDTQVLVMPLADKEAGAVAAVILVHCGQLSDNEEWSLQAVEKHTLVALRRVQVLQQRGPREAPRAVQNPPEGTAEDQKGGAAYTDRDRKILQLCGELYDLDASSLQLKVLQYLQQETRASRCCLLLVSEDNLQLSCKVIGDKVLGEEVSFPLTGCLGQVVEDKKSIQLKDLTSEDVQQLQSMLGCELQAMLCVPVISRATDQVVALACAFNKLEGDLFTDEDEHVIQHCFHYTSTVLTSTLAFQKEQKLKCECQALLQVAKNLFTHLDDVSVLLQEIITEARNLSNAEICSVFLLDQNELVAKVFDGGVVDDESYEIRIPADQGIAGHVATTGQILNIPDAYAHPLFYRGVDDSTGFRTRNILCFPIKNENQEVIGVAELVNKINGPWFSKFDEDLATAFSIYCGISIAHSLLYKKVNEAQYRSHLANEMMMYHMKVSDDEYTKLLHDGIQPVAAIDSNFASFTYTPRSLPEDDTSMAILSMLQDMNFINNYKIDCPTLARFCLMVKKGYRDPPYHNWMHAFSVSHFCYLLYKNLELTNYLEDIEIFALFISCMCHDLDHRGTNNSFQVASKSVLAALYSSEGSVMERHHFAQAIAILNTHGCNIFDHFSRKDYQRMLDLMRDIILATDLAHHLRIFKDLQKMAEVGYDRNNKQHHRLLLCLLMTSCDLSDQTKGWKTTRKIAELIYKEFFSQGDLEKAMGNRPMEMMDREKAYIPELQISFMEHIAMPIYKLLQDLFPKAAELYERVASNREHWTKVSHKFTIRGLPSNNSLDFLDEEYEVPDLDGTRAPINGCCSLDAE
T2 sequence (Q14432 whole entry): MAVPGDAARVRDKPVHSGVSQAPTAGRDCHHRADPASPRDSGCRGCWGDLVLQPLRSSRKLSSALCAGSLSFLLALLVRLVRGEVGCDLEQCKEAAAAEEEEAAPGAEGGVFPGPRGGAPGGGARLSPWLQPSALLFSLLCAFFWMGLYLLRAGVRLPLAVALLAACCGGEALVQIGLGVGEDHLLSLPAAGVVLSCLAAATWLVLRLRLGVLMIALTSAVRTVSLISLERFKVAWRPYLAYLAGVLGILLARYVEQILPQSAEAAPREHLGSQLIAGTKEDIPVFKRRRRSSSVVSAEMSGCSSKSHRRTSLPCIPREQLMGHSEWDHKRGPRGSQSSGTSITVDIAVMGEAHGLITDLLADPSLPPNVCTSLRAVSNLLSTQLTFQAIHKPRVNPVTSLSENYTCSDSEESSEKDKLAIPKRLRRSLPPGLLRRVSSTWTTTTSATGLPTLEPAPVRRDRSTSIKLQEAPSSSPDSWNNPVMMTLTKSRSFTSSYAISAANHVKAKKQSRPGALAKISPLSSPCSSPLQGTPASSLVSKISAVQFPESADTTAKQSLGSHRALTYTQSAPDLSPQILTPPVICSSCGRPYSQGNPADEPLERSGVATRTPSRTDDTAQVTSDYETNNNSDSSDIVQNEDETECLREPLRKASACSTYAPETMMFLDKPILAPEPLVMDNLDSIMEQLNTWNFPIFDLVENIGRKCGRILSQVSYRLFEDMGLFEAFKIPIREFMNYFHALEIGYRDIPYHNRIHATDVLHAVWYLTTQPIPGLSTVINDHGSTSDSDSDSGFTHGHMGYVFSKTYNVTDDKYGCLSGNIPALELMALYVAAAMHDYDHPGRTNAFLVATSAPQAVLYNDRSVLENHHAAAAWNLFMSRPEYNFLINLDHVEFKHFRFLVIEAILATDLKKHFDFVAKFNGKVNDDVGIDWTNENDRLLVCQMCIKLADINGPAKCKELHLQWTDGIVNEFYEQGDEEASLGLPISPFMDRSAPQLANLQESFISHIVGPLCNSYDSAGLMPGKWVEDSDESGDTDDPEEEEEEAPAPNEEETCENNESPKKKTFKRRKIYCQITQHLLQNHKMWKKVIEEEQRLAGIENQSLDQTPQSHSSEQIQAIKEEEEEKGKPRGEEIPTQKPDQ
T3 sequence (Q9Y233 267-1055): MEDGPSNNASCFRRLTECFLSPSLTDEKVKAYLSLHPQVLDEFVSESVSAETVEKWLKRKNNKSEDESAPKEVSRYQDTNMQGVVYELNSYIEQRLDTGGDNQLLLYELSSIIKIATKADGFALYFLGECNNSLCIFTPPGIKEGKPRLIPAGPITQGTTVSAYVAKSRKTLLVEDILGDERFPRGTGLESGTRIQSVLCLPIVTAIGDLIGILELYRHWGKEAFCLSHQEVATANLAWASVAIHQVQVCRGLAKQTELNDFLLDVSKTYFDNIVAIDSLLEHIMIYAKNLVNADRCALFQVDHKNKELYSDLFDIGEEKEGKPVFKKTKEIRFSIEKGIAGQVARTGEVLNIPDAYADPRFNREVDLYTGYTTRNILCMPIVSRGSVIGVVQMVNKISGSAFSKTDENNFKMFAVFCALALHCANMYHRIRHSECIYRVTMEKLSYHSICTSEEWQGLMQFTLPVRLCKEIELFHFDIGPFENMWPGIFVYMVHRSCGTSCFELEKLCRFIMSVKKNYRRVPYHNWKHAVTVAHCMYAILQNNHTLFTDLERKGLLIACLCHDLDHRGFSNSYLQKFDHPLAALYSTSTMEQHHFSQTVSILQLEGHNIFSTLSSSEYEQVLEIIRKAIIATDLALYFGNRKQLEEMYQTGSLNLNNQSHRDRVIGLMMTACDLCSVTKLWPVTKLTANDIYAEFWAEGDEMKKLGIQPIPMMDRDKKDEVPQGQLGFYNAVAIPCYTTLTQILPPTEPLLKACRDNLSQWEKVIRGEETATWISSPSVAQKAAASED

SMILES | Emax [1] [%] | IC50 [2] [nM] | Emax [2] [%] | Emax [3, 5] [%] | IC50 [3, 6] [nM] | melting point [°C] | IC50 [1, 7] [nM] | Emax ([1]; human recombinant PDE2A) [%] | IC50 [1, 8] [nM] | IC50 ([1]; hPDE2A pIC50) [nM] | IC50 [1, 4] [nM] | PDE2 Occupancy at 10 mg/kg (PDE2A) | receptor occupancy at 10 mg/kg (PDE2A; po) [%] | Emax [3, 9] [%] | IC50 [3, 10] [nM]
COc1cc(C(=O)N2CC[C@@H](C)[C@H](c3cc(C)nc4ncnn34)C2)cc(Cl)n1 [Compound 22] | 100 | 1510 | 87 | 99 | 15.8 | 217.82 | – | – | – | 2.34 | 2.34 | 30 | 18 | – | –
C[C@@H]1CCN(C(=O)c2ccc(F)c(C(F)(F)F)c2)C[C@H]1c1cc(C(F)F)nc2ncnn12 [Compound 194] | 99 | 4570 | 57 | 97 | 263 | 167.52 | 18.6 | 99 | 18.6 | – | – | – | – | – | –
Cc1cc(C)cc(C(=O)N2CC[C@H](C)[C@@H](c3cc(C(F)F)nc4ncnn34)C2)c1 [Compound 214] | 9 | > 10000 | 9 | 30 | > 10000 | 203.97 | – | – | – | 6310 | 6310 | – | – | 30 | > 10000
O=C(c1cc(Cl)cc(Cl)c1)N1[C@H]2CC[C@H](c3cc(C(F)F)nc4ncnn34)[C@@H]1CC2 [Compound 333] | 99 | 6920 | 63 | – | – | 291.55 | – | – | 8.13 | – | – | – | – | 93 | 708
CC(C)n1ccc2cc(C(=O)N3[C@H]4CC[C@H](c5cc(C(F)F)nc6ncnn56)[C@@H]3CC4)ccc21 [Compound 355] | 99 | 724 | 98 | – | – | 146.08 | – | – | 0.933 | – | – | – | – | 98 | 234
O=C(c1cn2ccsc2n1)N1[C@H]2CC[C@H](c3cc(C(F)F)nc4ncnn34)[C@@H]1CC2 [Compound 360] | 97 | 8510 | 50 | – | – | 264.8 | – | – | 40.7 | – | – | – | – | 55 | 6920
Cc1cc(C(=O)N2[C@H]3CC[C@H](c4cc(C(F)F)nc5ncnn45)[C@@H]2CC3)ccc1Cl [Compound 375] | 101 | 4470 | 73 | – | – | 171.51 | – | – | 3.55 | – | – | – | – | 94 | 813
COc1ccc(C(=O)N2[C@H]3CC[C@H](c4cc(C(F)F)nc5ncnn45)[C@@H]2CC3)cc1Cl [Compound 376] | 101 | 3390 | 79 | – | – | 175.71 | – | – | 4.27 | – | – | – | – | 97 | 309
O=C(c1ccc(F)c(Cl)c1)N1[C@H]2CC[C@H](c3cc(C(F)F)nc4ncnn34)[C@@H]1CC2 [Compound 377] | 99 | 9770 | 47 | – | – | 183.67 | – | – | 17.8 | – | – | – | – | 89 | 1290

The next lines start with results.

Emax [1] [%] | IC50 [2] [nM] | Emax [2] [%] | Emax [3, 5] [%] | IC50 [3, 6] [nM] | melting point [°C] | IC50 [1, 7] [nM] | Emax ([1]; human recombinant PDE2A) [%] | IC50 [1, 8] [nM] | SMILES | IC50 ([1]; hPDE2A pIC50) [nM] | IC50 [1, 4] [nM] | PDE2 Occupancy at 10 mg/kg (PDE2A) | receptor occupancy at 10 mg/kg (PDE2A; po) [%] | Emax [3, 9] [%] | IC50 [3, 10] [nM]
28 | > 10000 | 11 | 23 | > 10000 | 169.7 | 2340 | 28 | 2340 | Cc1csc(C(=O)N2CC[C@H](C)[C@@H](c3cc(C(F)F)nc4ncnn34)C2)c1 [Compound 213] | – | – | – | – | – | –
99 | 7410 | 61 | 95 | 162 | 247.4 | – | – | 2.95 | Cc1cc([C@@H]2CN(C(=O)c3cc(Cl)ncc3Cl)CC[C@H]2C)n2ncnc2n1 [Compound 271] | – | – | – | – | 95 | 162
100 | 479 | 95 | – | – | 180.27 | – | – | 0.501 | C[C@@H]1CCN(C(=O)c2ccc3ncccc3c2)C[C@H]1c1cc(C(F)F)nc2ncnn12 [Compound 322] | – | – | – | – | 99 | 18.6
100 | 263 | 97 | – | – | 204.06 | – | – | 0.851 | C[C@@H]1CCN(C(=O)c2cnc3ccccc3c2)C[C@H]1c1cc(C(F)F)nc2ncnn12 [Compound 324] | – | – | – | – | 100 | 66.1
100 | 309 | 98 | – | – | 226.36 | – | – | 1.15 | C[C@@H]1CCN(C(=O)c2cnc3c(F)cccc3c2)C[C@H]1c1cc(C(F)F)nc2ncnn12 [Compound 325] | – | – | – | – | 98 | 64.6
101 | 77.6 | 99 | – | – | 194.86 | – | – | 0.417 | C[C@@H]1CCN(C(=O)c2ccc3c(ccn3C)c2)C[C@H]1c1cc(C(F)F)nc2ncnn12 [Compound 327] | – | – | – | – | 100 | 20.4
100 | 204 | 95 | – | – | 227.79 | – | – | 0.55 | C[C@@H]1CCN(C(=O)c2cnc3c(Cl)cccc3c2)C[C@H]1c1cc(C(F)F)nc2ncnn12 [Compound 329] | – | – | – | – | 100 | 21.4
98 | 50.1 | 99 | – | – | 193.87 | – | – | 0.479 | C[C@@H]1CCN(C(=O)c2ccc3ccccc3c2)C[C@H]1c1cc(C(F)F)nc2ncnn12 [Compound 331] | – | – | – | – | 100 | 14.5
